Reference: patent publication US20100215618A1, “NOVEL COMPOUNDS - 644” (Arrow Therapeutics Limited, priority 2009, published 2010)
Like-named read-outs stand apart in the source and are kept apart here.

How the values were obtained:
[1] = system: HCV replicon cells Huh 9B (genotype 1b); assay: 1b Replicon Assay (luciferase readout); assay type: cell-based; conditions: Hepatitis C virus, Huh 9B replicon cells, 72 h, luciferase activity
Protocol: (§1) HCV replicon cells Huh 9B (ReBlikon), containing the firefly luciferase-ubiquitin-neomycin phosphotransferase fusion protein and EMCV-IRES driven HCV polyprotein with cell culture adaptive mutations.
Cells were cultured at 37° C./5% CO2 and split twice a week. G418 at 0.5 mg/ml was added to the culture medium but not the assay medium.
The culture medium consisted of DMEM with […] glucose and Glutamax (Gibco 61965-026) supplemented with 1× non-essential amino acids (Invitrogen 11140-035), 0.5 mg/ml G418 (Invitrogen 10131-027) and 10% Australian foetal calf serum (Invitrogen 10099-141).
(§2) Replicon cells were trypsinised and counted. Cells were diluted to 100,000 cells/ml and 100 μl used to seed one opaque white 96-well plate (for the replicon assay) and one flat-bottomed clear plate (for the tox assay) for every five compounds to be tested for IC50. Wells G12 and H12 were left empty in the clear plate as the blank. Plates were then incubated at 37° C./5% CO2 for 24 h.
(§3) On the following day compound dilutions were prepared in medium at twice their desired final concentration in a clear round bottomed plate. All dilutions have a final DMSO concentration of 1%.
(§4) Controls and compounds were transferred from the dilution plates to the assay plates (containing the cells) at 100 μl/well in duplicate wells.
(§5) Exception: no compound was added to wells A1 and A2 of either plate and 100 μl of 1% DMSO was added to these instead. Plates were then incubated at 37° C./5% CO2 for 72 h.
At the end of the incubation time, the cells in the white plate were washed in PBS (100 μL per well) and dried by tapping before addition of 204 per well of lysis buffer (25 mM tris-phosphate, 8 mM MgCl2, 1 mM DTT, 1% Triton X-100, 15% glycerol; pH to 7.8 using KH2PO4 prior to Triton X-100 and glycerol addition). Aliquots of substrate (23.5 mM beetle luciferin (Promega E1603), 26 mM ATP (Sigma O-2060) in […] Tris buffer pH 7.8) were stored at −80° C. Prior to use, required amount of luciferin was thawed and diluted 1:50 in luciferase assay buffer (20 mM Tricine (Sigma T-0377), 1.07 mM magnesium carbonate hydroxide (Sigma M-5671), 0.1 mM EDTA (Sigma E-5134), 2.67 mM MgSO4(BDH 101514Y), 33.3 mM dithiothreitol (Sigma 150460) pH 7.8).
After 5-60 min incubation in lysis buffer at room temperature, a plate was inserted into the luminometer and 100 μl luciferase assay reagent was added by the injector of the luminometer. The signal was measured using a 1 second delay followed by a 4 second measurement programme. The IC50, the concentration of the drug required for reducing the replicon level by 50% in relation to the untreated cell control value, was calculated from the plot of the percentage reduction of the luciferase activity vs. drug concentration.

[2] = system: HCV replicon cells Huh 9B; assay type: cell-based; conditions: Huh 9B replicon cells, 72 h, methylene blue, total cell area reduced by 50%
Protocol: as §1, §2, §3, §4, §5
The clear plate was stained with 100 μA 0.5% methylene blue in 50% ethanol at room temperature for 1 h, followed by solvation of the absorbed methylene blue in 100 μl per well of 1% lauroylsarcosine. Absorbance of the plate was measured on a microplate spectrophotometer (Molecular Devices) and the absorbance for each concentration of compound expressed as a proportion of the relative DMSO control. The TD50, the is concentration of drug required to reduce the total cell area by 50% relative to the DMSO controls, was calculated by plotting the absorbance at 620 nm after background substraction against drug concentration.

[3] = system: HCV genotype 1a replicon cells Htat2ANeo; assay: 1a Replicon Assay (cell-based anti-NS5a ELISA); conditions: Hepatitis C virus, 72 h
Protocol: HCV genotype la replicon cells Htat2ANeo (University of Texas), containing neomycin phosphotransferase fusion protein and EMCV-IRES driven HCV polyprotein with cell culture adaptive mutations, and control cells, Et2AN.
Cells were cultured at 37° C./5% CO2 and split twice a week. G418 at 0.5 mg/ml and Blastocidin at 2 mg/ml were added to the culture medium but not the assay medium.
The culture medium consisted of DMEM with […] glucose and Glutamax (Gibco 61965-026) supplemented with 1× non-essential amino acids (Invitrogen 11140-035), 0.5 mg/ml G418 (Invitrogen 10131-027), 2 mg/ml Blastocidin (PAA) and 10% is Australian foetal calf serum (Invitrogen 10099-141).
Replicon and control cells were trypsinised and counted. Replicon cells were diluted to 90,000 cells/ml and 100 μl of this used to seed columns 2-4, […] and 10-12 of a black, clear bottom 96-well plate for every three compounds to be tested for IC50. Control cells were diluted to 60,000 cells/ml and 100 μl of this used to seed columns 1, 5 and 9 of the plate. Well H1 was left empty as the blank. Plates were then incubated at 37° C./5% CO2 for 24 h.
On the following day compound dilutions were prepared in medium at twice their desired final concentration in a clear round bottomed plate.
Controls and compounds were transferred from the dilution plate to the assay plates (containing the cells) at 100 μl/well in quadruplicate wells, one well containing control cells and 3 wells containing replicon cells.
Exception: no compound was added to row H of the plate and 100 μl of 1% DMSO was added to these instead. Plates were then incubated at 37° C. with 5% CO2 for 72 h. At the end of the incubation time, any reduction in cell viability was assayed and a cell-based enzyme linked immunosorbent assay (ELISA) was performed. The media/compound was removed from all wells and replaced with 100 μl/well serum-free media and 20 μl/well Cell Titre Blue (Promega G8081). Following incubation at 37° C./5% CO2 for 2 h plates were read on a microplate fluorometer (Molecular Devices) using an excitation of 570 nm and an emission of 590 nm The TD50, the concentration of drug required to reduce 50% of Cell Titre Blue relative to the DMSO controls, was calculated by plotting the fluorescence at 590 nm after substraction of background against drug concentration.
The media/Cell Titre Blue was removed and plates washed in PBS and gently tapped dry before addition of 50 μL per well of 75% acetone/25% methanol mixture for 3 minutes. The fixative was then discarded and wells were washed with PBS before addition of 100 μl/well of blocking solution (2% non-fat dry milk and 0.05% Tween-20 in 0.85% NaCl). Plates were then incubated at 37° C. in a shaking incubator for 60 min. Blocking solution was discarded and 50 μl of mouse anti-NS5a antibody (Virostat 1877) at 1:100 dilution in blocking buffer was added to all wells. Plates were incubated at 37° C. in a shaking incubator for 90 min Antibody was then discarded and plates were washed 4 times by immersion in 0.85% NaCl/0.05% Tween-20. After washing plates were tapped dry gently and 50 μl of secondary antibody (Dako P0260 Rabbit anti-mouse horseradish peroxidase) at 1:1000 dilution in blocking buffer was added to the wells. Plates were incubated at 37° C. in a shaking incubator for 60 min. Antibody was discarded and plates were washed 6 times by immersion in 0.85% NaCl/0.05% Tween-20 and once in PBS. Finally, 50 μl of substrate (SigmaFast ortho-phenylene diamine dihydrochloride (OPD)) was added per well and the colorimetric reaction was allowed to proceed in the dark for 5 to 15 minutes depending on the strength or the signal. The reaction was stopped by addition of 25 μl/well of 20% sulphuric acid. Plates were read on the SpectraMax microplate reader at 490 nm fixed wavelength. […]

[4] = read-out: pIC50 1b Replicon (converted)
[5] = read-out: pIC50 1a Replicon (converted)

`COC(=O)N[C@@H](C(=O)N1CCC[C@H]1c1ncc(-c2ccc(-c3cccc(C(=O)Nc4ccc(CN5CCS(=O)(=O)CC5)cc4)c3)cc2)[nH]1)c1ccccc1` [Example 31, Methyl N-[(1R)-2-[(2S)-2-[5-[4-[3-[[4-[(1,1-dioxo-1,4-thiazinan-4-yl)methyl]phenyl]carbamoyl]phenyl]phenyl]-1H-imidazol-2-yl]pyrrolidin-1-yl]-2-oxo-1-phenyl-ethyl]carbamate] was tested, and the IC50 ([1]; read-out: HCV IC50 1b Replicon) was 0.91 nM, the IC50 [1, 4] was 0.912 nM and the “HCV TD50 Replicon” value [2] was over 25 µM. It also gave an IC50 ([3]; read-out: HCV IC50 Elisa 1a) of 2700 nM and an IC50 [3, 5] of 2690 nM.

With `COC(=O)N[C@@H](C)C(=O)N1CCC[C@H]1c1ncc(-c2ccc(-c3cccc(C(=O)Nc4ccc(CN5CCS(=O)(=O)CC5)cc4)c3)cc2)[nH]1` [Example 29, Methyl N-[(1S)-2-[(2S)-2-[5-[4-[3-[[4-[(1,1-dioxo-1,4-thiazinan-4-yl)methyl]phenyl]carbamoyl]phenyl]phenyl]-1H-imidazol-2-yl]pyrrolidin-1-yl]-1-methyl-2-oxo-ethyl]carbamate] the IC50 ([1]; read-out: HCV IC50 1b Replicon) was 33.4 nM, the IC50 [1, 4] was 33.1 nM and the “HCV TD50 Replicon” value [2] was over 25 µM. For the same compound, the IC50 ([3]; read-out: HCV IC50 Elisa 1a) was 7620 nM and the IC50 [3, 5] was 7590 nM.

With `COC(=O)N[C@@H](CO)C(=O)N1CCC[C@H]1c1ncc(-c2ccc(-c3ccc(C(=O)Nc4ccc(CN5CCS(=O)(=O)CC5)cc4)cc3)cc2)[nH]1` [Example 11, Methyl N-[(1S)-2-[(2S)-2-[5-[4-[4-[[4-[(1,1-dioxo-1,4-thiazinan-4-yl)methyl]phenyl]carbamoyl]phenyl]phenyl]-1H-imidazol-2-yl]pyrrolidin-1-yl]-1-(hydroxymethyl)-2-oxo-ethyl]carbamate] the IC50 ([1]; read-out: HCV IC50 1b Replicon) was 1.13 nM, the IC50 [1, 4] was 1.12 nM and the “HCV TD50 Replicon” value [2] was over 21 µM. It also gave an IC50 ([3]; read-out: HCV IC50 Elisa 1a) of 19 nM and an IC50 [3, 5] of 19.1 nM.

In the case of `CC(C)(C)OC(=O)N[C@H](C(=O)N1CCC[C@H]1c1ncc(-c2ccc(-c3ccc(C(=O)Nc4ccc(CN5CCS(=O)(=O)CC5)cc4)cc3)cc2)[nH]1)c1ccccc1` [Example 1, Tert-butyl N-[(1S)-2-[(2S)-2-[5-[4-[4-[[4-[(1,1-dioxo-1,4-thiazinan-4-yl)methyl]phenyl]carbamoyl]phenyl]phenyl]-1H-imidazol-2-yl]pyrrolidin-1-yl]-2-oxo-1-phenyl-ethyl]carbamate], the IC50 ([1]; read-out: HCV IC50 1b Replicon) is reported as 0.01 nM, the IC50 [1, 4] is reported as 0.0138 nM and the “HCV TD50 Replicon” value [2] is reported as over 25 µM. It also gave an IC50 ([3]; read-out: HCV IC50 Elisa 1a) of 41.4 nM and an IC50 [3, 5] of 41.7 nM.

In the case of `COC(=O)N[C@H](C(=O)N1CCOC[C@H]1c1ncc(-c2ccc(-c3ccc(C(=O)Nc4ccc(CN5CCS(=O)(=O)CC5)cc4)cc3)cc2)[nH]1)C(C)C` [Example 46, Methyl N-[(1S)-1-[(3R)-3-[5-[4-[4-[[4-[(1,1-dioxo-1,4-thiazinan-4-yl)methyl]phenyl]carbamoyl]phenyl]phenyl]-1H-imidazol-2-yl]morpholine-4-carbonyl]-2-methyl-propyl]carbamate], the IC50 ([1]; read-out: HCV IC50 1b Replicon) is reported as 0.71 nM, the IC50 [1, 4] is reported as 0.708 nM and the “HCV TD50 Replicon” value [2] is reported as over 25 µM. It also gave an IC50 ([3]; read-out: HCV IC50 Elisa 1a) of 19.4 nM and an IC50 [3, 5] of 19.5 nM.

`COC(=O)N[C@H](CO)C(=O)N1CCC[C@H]1c1ncc(-c2ccc(-c3ccc(C(=O)Nc4ccc(CN5CCS(=O)(=O)CC5)cc4)cc3)cc2)[nH]1` [Example 19, Methyl N-[(1R)-2-[(2S)-2-[5-[4-[4-[[4-[(1,1-dioxo-1,4-thiazinan-4-yl)methyl]phenyl]carbamoyl]phenyl]phenyl]-1H-imidazol-2-yl]pyrrolidin-1-yl]-1-(hydroxymethyl)-2-oxo-ethyl]carbamate] was tested, and the IC50 ([1]; read-out: HCV IC50 1b Replicon) was 43.2 nM, the IC50 [1, 4] was 43.7 nM and the “HCV TD50 Replicon” value [2] was 21.4 µM.

For `COC(=O)N[C@@H](C(=O)N1CCC[C@@H]1c1ncc(-c2ccc(-c3ccc(C(=O)Nc4ccc(CN5CCS(=O)(=O)CC5)cc4)cc3)cc2)[nH]1)C(C)C` [Example 27, methyl N-[(1R)-1-[(2R)-2-[5-[4-[4-[[4-[(1,1-dioxo-1,4-thiazinan-4-yl)methyl]phenyl]carbamoyl]phenyl]phenyl]-1H-imidazol-2-yl]pyrrolidine-1-carbonyl]-2-methyl-propyl]carbamate], the IC50 ([1]; read-out: HCV IC50 1b Replicon) was 15.3 nM, the IC50 [1, 4] was 15.1 nM and the “HCV TD50 Replicon” value [2] was over 25 µM.

With `COC(=O)N[C@H](C(=O)N1CCCC[C@H]1c1ncc(-c2ccc(-c3ccc(C(=O)Nc4ccc(CN5CCS(=O)(=O)CC5)cc4)cc3)cc2)[nH]1)c1ccccc1` [Example 51, Methyl N-[(1S)-2-[(2S)-2-[5-[4-[4-[[4-[(1,1-dioxo-1,4-thiazinan-4-yl)methyl]phenyl]carbamoyl]phenyl]phenyl]-1H-imidazol-2-yl]-1-piperidyl]-2-oxo-1-phenyl-ethyl]carbamate] the IC50 ([1]; read-out: HCV IC50 1b Replicon) was 0.79 nM, the IC50 [1, 4] was 0.794 nM and the IC50 ([3]; read-out: HCV IC50 Elisa 1a) was 95 nM. It also gave an IC50 [3, 5] of 95.5 nM.

In the case of `COC(=O)N[C@@H](C(=O)N1CCC[C@H]1c1ncc(-c2ccc(-c3ccc(C(=O)Nc4ccc(CN5CCS(=O)(=O)CC5)cc4)cc3)cc2)[nH]1)[C@H](C)O` [Example 18, Methyl N-[(1R,2S)-1-[(2S)-2-[5-[4-[4-[[4-[(1,1-dioxo-1,4-thiazinan-4-yl)methyl]phenyl]carbamoyl]phenyl]phenyl]-1H-imidazol-2-yl]pyrrolidine-1-carbonyl]-2-hydroxy-propyl]carbamate], the IC50 ([1]; read-out: HCV IC50 1b Replicon) is reported as 126 nM, the IC50 [1, 4] is reported as 126 nM and the “HCV TD50 Replicon” value [2] is reported as over 25 µM.
